# Measured values taken from patent US20080207605A1, “Combination therapy for the treatment of liver diseases” (priority 2007, published 2008).
# What was measured:
# male C57B1/6 mice [1] = assay: TNF-α model of liver injury (TNFα/D-Gln), plasma ALT activity; format: in vivo; settings: PO by gavage 30 minutes before D-Gln/TNFα insult; blood 6 hours later; average from 4 studies
# Method: (§1) TNF-α is a cytokine that is implicated in inducing liver injury in a variety of acute and chronic liver diseases such as chronic HCV and acute liver failure. An exemplary in vivo model to test pharmacological agents against TNF-α induced injury is the TNF-α/D-Gal model of liver injury in mice. In this model, mice are treated with TNF-α/D-Gal and compound is administered to evaluate its ability to protect against liver damage. The compound is administered either before, at the time of or after the treatment with TNF-α/D-Gal, and followed for a period of approximately 6 hours. Allowing this model to persist past 6 hours is a variation used to determine the improved survival afforded by compound treatment.
# (§2) In vivo efficacy of RO-113-0830 was assessed using male C57B1/6 mice (Simonsen Labs) in two well-established models of liver damage. The mice were allowed to acclimate for at least three days.
# In the TNF-α model of liver injury, D-Galactosamine (D-Gln) (800 mg/kg) and TNFα (20 or 40 μg/kg) were injected IP. RO-113-0830 (0.001-30 mg/kg) was administered PO by gavage 30 minutes before insult. Six hours later, animals were anesthetized with Nembutal (50 mg/kg IP), and blood was taken by cardiac puncture. Plasma ALT activity was determined using a kit from Sigma-Aldrich.
# male C57B1/6 mice [2] = assay: Fas driven model of liver damage (Jo-2 antibody), plasma ALT activity; format: in vivo; settings: 10 mg/kg PO; 6 hours after Jo-2 IV; average of 2 studies; p<0.05 in each study
# Method: as §2
# In a Fas driven model of liver damage, an activating antibody to Fas (Jo-2) was administered IV. Six hours later, animals were anesthetized with Nembutal (50 mg/kg IP), and blood was taken by cardiac puncture. Plasma ALT activity was determined using a kit from Sigma-Aldrich.
# male C57B1/6 mice [3] = assay: TNF-α model (TNFα/D-Gln), 24 hour survival; format: in vivo; settings: TNFα/D-Gln insult; average from 3 studies; p=0.03 vs control (27±7.3%)
# Method: as §1, §2
# To determine a benefit on survival, TNF-α model, D-Galactosamine (D-Gln) (800 mg/kg) and TNF-α (20 or 40 μg/kg) were injected IP, and mice were allowed to survive for 24 hours post insult. All morbid mice were euthanized with 125 mg/kg of Nembutal IP. The average 24 hour survival from 3 studies was 27±7.3% and. 55±7.6% (p=0.03) in the TNFα/D-Gln control mice and RO-113-0830-treated mice, respectively.
# full-length HCV replicon = assay: HCV RNA replicon antiviral evaluation assay; format: cell-based, Hepatitis C virus; settings: 72 hr; HCV RNA replicon levels by TaqMan RT-PCR; read-out: EC50 (concentration inhibition virus replication by 50%)
# Method: The assay was conducted as described by Pietschmann, T. et al., supra.
# Human interferon alpha-2b was included in each run as a positive control compound. Subconfluent cultures of the ET line were plated out into 96-well plates that were dedicated for the analysis of cell numbers (cytotoxicity) or antiviral activity and the next day drugs were added to the appropriate wells. Cells were processed 72 hr later when the cells were still sub-confluent. HCV RNA replicon levels and the toxic concentration of drug that reduces cell numbers, as indicated by host cell ribosomal RNA (rRNA) levels, were assessed by TaqMan RT-PCR. The EC50 (concentration inhibition virus replication by 50%), IC50 (concentration decreasing cell viability by 50%) and S150 (selective index: IC50/EC50) values were calculated.
# [4] = tested on: Huh7 human hepatoma cell line (the 21-5 cell line); settings: read-out: IC50 for cytotoxicity (concentration decreasing cell viability by 50%); 72 hr; host cell rRNA levels by TaqMan RT-PCR
# Text: Cells were processed 72 hr later when the cells were still sub-confluent.
# C57/BL6 wild-type mice = assay: Bile duct ligation model of liver fibrosis; format: in vivo; settings: 10 mg/kg by gavage once a day
# Method: The bile duct ligation model is a well characterized model of liver fibrosis. Briefly, C57/BL6 wild-type mice 6 to 8 weeks of age were subjected to bile duct ligation (BDL) for 14 days: Sham-operated wild type mice were used as controls. Either RO 113-0830 or CMC (carboxymethylcellulose) were administered by gavage in a dose of 10 mg/kg body weight once a day. Hepatocyte apoptosis was quantified by the TUNEL assay and immunofluorescence for activated caspases 3/7. Liver injury was assessed by histopathology, and quantification of bile infarcts. Hepatic fibrosis was assessed by Sirius red staining and quantitative morphometry. Real-time polymerase chain reaction (PCR) was used to measure mRNA transcripts for collagen 1alpha (I) and alpha-smooth muscle actin.
smiles,measurement,setting,value
O=C(NO)C1(CS(=O)(=O)c2ccc(Oc3ccc(Cl)cc3)cc2)CCOCC1 [RO-113-0830],ED50 for decrease of plasma ALT activity,male C57B1/6 mice [1],0.26 ± 0.08 mg/kg
same,reduction of Fas-induced elevation in plasma ALT activity,male C57B1/6 mice [2],50%
same,24 hour survival,male C57B1/6 mice [3],55±7.6%
same,EC50,full-length HCV replicon,0.07 µM
same,IC50,[4],~25 µM
same,reduction of Sirius red staining of hepatic collagen,C57/BL6 wild-type mice; 14 days of BDL,3 fold
same,reduction in the number of bile infarcts vs vehicle treated BDL mice,"C57/BL6 wild-type mice; 14 days of BDL, histologic examination",> 70%
same,decrease in TUNEL-positive hepatocytes vs vehicle,"C57/BL6 wild-type mice; 14 days of BDL, p<0.01",3 fold
same,decrease in caspase 3/7-positive hepatocytes vs vehicle,"C57/BL6 wild-type mice; 14 days of BDL, p<0.01",5 fold
same,reduction of hepatic alpha-smooth muscle actin mRNA vs vehicle-treated BDL animals,"C57/BL6 wild-type mice; 14 days of BDL, real-time PCR",> 60%
same,reduction of hepatic collagen I mRNA vs vehicle-treated BDL animals,"C57/BL6 wild-type mice; 14 days of BDL, real-time PCR",> 60%
same,overall animal survival following 14 days of BDL,C57/BL6 wild-type mice; p<0.05,significantly enhanced
